Test results as given in publication PMC10924921, “Mi-2β promotes immune evasion in melanoma by activating EZH2 methylation” (Nature Communications, 2024).

How the values were obtained:
Assay in all cases: biochemical
Parameters in all cases: KINOMEscan active-site competition binding panel (468 kinase assays), per cent of control at 1000 nM
Conditions in all cases: KINOMEscan per cent of control (binding competition); read-out: Percent Control
ADCK3 = target: T1, ADCK3 (Homo sapiens, UniProt Q8NI60)
T1 construct: gene COQ8A
Description: (§1) Figure S7 / Percent Control

CDC2L5 = target: T2, CDC2L5 (Homo sapiens, UniProt Q14004)
T2 construct: gene CDK13
Description: as §1

CHEK1 = CHEK1 (Homo sapiens, UniProt O14757)
Description: as §1

CLK1 = CLK1 (Homo sapiens, UniProt P49759)
Description: as §1

DCAMKL1 = target: T3, DCAMKL1 (Homo sapiens, UniProt O15075)
T3 construct: gene DCLK1
Description: as §1

EGFR(E746-A750del) = EGFR(E746-A750del) (Homo sapiens, UniProt P00533, DEL746-750)
Description: as §1

[1] = target: T4, JAK3(JH1domain-catalytic) (Homo sapiens, UniProt P52333)
T4 construct: JH1domain-catalytic
Description: as §1

KIT(V559D) = KIT(V559D) (Homo sapiens, UniProt P10721, V559D)
Description: as §1

KIT(V559D,T670I) = KIT(V559D,T670I) (Homo sapiens, UniProt P10721, T670I/V559D)
Description: as §1

MAK = MAK (Homo sapiens, UniProt P20794)
Description: as §1

MINK = target: T5, MINK (Homo sapiens, UniProt Q8N4C8)
T5 construct: gene MINK1
Description: as §1

MLK3 = target: T6, MLK3 (Homo sapiens, UniProt Q16584)
T6 construct: gene MAP3K11
Description: as §1

NIM1 = target: T7, NIM1 (Homo sapiens, UniProt Q8IY84)
T7 construct: gene NIM1K
Description: as §1

PIK3CD = PIK3CD (Homo sapiens, UniProt O00329)
Description: as §1

PIM3 = PIM3 (Homo sapiens, UniProt Q86V86)
Description: as §1

PIP5K2C = target: T8, PIP5K2C (Homo sapiens, UniProt Q8TBX8)
T8 construct: gene PIP4K2C
Description: as §1

PLK3 = PLK3 (Homo sapiens, UniProt Q9H4B4)
Description: as §1

PRKCD = PRKCD (Homo sapiens, UniProt Q05655)
Description: as §1

PRKD2 = PRKD2 (Homo sapiens, UniProt Q9BZL6)
Description: as §1

[2] = target: T9, RSK2(Kin.Dom.2-C-terminal) (Homo sapiens, UniProt P51812)
T9 construct: gene RPS6KA3; Kin.Dom.2-C-terminal
Description: as §1

SRPK1 = SRPK1 (Homo sapiens, UniProt Q96SB4)
Description: as §1

SRPK3 = SRPK3 (Homo sapiens, UniProt Q9UPE1)
Description: as §1

TAOK3 = TAOK3 (Homo sapiens, UniProt Q9H2K8)
Description: as §1

TBK1 = TBK1 (Homo sapiens, UniProt Q9UHD2)
Description: as §1

T8 sequence (Q8TBX8 whole entry): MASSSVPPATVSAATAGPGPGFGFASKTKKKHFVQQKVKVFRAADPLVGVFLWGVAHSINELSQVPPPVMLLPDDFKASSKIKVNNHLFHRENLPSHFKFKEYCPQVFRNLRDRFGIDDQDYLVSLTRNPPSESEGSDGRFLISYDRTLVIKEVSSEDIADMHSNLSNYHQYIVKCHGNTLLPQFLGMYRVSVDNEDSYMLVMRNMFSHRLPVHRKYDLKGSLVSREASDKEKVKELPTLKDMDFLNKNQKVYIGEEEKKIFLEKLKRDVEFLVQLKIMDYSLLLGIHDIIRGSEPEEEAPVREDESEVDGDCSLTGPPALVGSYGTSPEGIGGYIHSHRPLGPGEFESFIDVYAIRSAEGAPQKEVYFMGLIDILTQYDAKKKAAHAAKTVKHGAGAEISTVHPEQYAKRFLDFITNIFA
T5 sequence (Q8N4C8 whole entry): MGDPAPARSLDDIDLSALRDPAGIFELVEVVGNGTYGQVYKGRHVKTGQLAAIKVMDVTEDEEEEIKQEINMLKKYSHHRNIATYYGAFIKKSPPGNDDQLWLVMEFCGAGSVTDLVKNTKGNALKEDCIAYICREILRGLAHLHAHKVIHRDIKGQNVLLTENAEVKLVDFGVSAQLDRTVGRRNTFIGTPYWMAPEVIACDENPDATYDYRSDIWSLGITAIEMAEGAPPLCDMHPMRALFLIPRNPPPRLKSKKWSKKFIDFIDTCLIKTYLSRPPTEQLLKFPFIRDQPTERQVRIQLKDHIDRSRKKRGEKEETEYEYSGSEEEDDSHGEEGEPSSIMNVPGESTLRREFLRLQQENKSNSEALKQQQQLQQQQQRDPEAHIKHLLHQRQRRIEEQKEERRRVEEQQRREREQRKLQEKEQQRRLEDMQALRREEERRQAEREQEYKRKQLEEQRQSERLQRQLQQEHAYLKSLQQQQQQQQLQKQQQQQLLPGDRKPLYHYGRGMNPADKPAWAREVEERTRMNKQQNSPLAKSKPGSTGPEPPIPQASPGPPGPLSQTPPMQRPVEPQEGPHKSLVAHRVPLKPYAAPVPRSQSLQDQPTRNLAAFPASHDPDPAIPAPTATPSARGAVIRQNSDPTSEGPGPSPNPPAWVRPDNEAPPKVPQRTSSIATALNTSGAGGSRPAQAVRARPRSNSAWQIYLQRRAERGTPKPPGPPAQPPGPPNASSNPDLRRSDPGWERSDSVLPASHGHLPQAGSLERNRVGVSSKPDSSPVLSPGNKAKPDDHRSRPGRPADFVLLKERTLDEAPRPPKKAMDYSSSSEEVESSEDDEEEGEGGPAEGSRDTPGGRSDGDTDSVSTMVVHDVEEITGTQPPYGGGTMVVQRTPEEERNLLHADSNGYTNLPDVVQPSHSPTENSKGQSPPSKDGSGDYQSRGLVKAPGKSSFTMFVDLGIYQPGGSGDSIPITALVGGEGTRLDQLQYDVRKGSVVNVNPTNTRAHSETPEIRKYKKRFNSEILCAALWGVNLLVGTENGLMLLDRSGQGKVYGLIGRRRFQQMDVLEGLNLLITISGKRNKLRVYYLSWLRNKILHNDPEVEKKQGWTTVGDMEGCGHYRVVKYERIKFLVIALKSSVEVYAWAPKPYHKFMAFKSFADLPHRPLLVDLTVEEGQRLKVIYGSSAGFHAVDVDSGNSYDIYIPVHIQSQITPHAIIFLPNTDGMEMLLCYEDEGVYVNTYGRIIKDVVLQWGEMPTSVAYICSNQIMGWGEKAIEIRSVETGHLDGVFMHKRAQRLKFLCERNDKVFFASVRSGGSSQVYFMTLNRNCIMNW
KIT(V559D,T670I), sequence (P10721 whole entry V559D/T670I): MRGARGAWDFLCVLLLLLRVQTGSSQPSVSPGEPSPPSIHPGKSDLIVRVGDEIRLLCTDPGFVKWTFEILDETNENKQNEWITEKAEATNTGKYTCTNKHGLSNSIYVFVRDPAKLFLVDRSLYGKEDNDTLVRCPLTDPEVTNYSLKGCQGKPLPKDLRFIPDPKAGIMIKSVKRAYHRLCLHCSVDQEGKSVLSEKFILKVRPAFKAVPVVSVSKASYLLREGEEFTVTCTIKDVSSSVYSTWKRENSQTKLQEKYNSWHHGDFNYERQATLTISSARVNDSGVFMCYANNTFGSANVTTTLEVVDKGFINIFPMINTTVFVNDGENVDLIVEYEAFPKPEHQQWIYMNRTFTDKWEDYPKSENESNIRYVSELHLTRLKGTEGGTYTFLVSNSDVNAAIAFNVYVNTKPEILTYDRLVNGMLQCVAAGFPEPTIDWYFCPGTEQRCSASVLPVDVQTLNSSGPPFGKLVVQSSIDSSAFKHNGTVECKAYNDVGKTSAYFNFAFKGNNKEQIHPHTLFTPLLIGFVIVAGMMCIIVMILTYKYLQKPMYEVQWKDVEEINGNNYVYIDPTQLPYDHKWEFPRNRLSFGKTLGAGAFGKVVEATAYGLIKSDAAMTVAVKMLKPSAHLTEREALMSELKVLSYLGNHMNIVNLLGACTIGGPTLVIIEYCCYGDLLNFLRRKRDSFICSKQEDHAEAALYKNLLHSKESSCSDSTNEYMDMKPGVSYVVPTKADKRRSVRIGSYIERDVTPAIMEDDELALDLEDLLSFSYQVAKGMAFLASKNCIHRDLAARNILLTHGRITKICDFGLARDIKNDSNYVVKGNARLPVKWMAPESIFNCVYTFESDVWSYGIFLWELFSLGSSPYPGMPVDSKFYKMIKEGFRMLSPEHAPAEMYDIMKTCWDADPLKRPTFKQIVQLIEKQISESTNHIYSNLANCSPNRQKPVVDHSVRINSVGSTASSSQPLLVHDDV
CLK1, sequence (P49759 whole entry): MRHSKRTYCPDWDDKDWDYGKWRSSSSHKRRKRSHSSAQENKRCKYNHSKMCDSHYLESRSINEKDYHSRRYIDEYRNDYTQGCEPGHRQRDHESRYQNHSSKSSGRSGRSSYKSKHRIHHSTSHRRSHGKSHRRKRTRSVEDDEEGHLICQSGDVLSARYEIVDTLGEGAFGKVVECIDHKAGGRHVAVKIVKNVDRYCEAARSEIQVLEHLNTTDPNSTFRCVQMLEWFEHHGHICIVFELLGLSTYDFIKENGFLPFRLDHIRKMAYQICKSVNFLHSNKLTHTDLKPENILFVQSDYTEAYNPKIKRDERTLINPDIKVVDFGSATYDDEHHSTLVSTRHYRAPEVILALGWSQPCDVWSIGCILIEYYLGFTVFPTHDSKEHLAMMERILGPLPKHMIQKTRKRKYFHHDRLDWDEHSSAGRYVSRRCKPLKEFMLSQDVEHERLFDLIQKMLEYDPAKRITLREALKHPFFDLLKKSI
T2 sequence (Q14004 whole entry): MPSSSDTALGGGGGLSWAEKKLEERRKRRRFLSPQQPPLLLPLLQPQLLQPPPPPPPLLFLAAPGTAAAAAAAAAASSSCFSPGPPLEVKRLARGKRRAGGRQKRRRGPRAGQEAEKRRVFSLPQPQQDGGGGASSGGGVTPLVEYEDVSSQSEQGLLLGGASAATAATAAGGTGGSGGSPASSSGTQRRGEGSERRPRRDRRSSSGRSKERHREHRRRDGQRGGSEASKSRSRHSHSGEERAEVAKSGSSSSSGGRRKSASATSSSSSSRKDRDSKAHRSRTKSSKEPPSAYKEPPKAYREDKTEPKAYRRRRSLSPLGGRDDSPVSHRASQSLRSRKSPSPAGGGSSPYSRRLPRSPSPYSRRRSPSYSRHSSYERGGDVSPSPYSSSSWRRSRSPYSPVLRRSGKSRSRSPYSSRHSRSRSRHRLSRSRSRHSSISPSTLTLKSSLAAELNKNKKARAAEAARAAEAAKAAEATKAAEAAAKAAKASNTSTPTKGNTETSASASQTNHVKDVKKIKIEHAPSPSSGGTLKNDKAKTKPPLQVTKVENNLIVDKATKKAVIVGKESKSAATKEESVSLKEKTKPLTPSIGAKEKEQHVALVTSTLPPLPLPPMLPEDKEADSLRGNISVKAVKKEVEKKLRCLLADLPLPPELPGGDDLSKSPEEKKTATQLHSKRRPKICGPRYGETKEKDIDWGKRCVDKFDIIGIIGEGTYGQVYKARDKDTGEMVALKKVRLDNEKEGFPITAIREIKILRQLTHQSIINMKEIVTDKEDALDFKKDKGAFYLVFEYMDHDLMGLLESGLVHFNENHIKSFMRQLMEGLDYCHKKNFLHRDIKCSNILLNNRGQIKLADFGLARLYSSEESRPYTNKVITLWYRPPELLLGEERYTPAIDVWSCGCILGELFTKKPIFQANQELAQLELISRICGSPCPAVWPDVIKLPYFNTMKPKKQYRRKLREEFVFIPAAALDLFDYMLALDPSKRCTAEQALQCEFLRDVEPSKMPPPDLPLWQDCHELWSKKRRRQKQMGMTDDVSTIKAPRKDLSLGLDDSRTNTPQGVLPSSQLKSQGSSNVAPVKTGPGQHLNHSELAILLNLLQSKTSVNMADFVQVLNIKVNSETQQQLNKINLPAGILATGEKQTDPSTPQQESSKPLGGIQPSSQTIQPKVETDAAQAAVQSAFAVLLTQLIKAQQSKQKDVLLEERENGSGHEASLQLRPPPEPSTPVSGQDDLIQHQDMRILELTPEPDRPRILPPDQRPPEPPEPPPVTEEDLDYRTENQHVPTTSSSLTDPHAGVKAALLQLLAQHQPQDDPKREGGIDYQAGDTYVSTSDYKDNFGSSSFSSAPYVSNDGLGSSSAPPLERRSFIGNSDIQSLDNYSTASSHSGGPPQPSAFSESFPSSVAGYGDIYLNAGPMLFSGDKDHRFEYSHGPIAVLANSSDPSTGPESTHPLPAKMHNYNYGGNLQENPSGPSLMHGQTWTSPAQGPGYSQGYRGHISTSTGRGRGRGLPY
KIT(V559D), sequence (P10721 whole entry V559D): as the sequence (P10721 whole entry V559D/T670I) above, with I670T counted along it

For Cn1c(=O)[nH]c2ccc(-c3cccc(C(=O)NC4CCn5ccnc5C4)c3)cc21 (stereo not drawn) [Z36-MP5], the remaining binding at 1 µM (ADCK3) was 39%, the remaining binding at 1 µM (CDC2L5) was 55% and the remaining binding at 1 µM (CHEK1) was 93%. The remaining binding at 1 µM (CLK1) was 96%, the remaining binding at 1 µM (DCAMKL1) was 53% and the remaining binding at 1 µM (EGFR(E746-A750del)) was 63%. The remaining binding at 1 µM [1] was 70%, the remaining binding at 1 µM (KIT(V559D)) was 90% and the remaining binding at 1 µM (KIT(V559D,T670I)) was 86%. The remaining binding at 1 µM (MAK) was 88%, the remaining binding at 1 µM (MINK) was 69% and the remaining binding at 1 µM (MLK3) was 93%. It also gave a remaining binding at 1 µM (NIM1) of 72%, a remaining binding at 1 µM (PIK3CD) of 74% and a remaining binding at 1 µM (PIM3) of 85%. The remaining binding at 1 µM (PIP5K2C) was 80%, the remaining binding at 1 µM (PLK3) was 68% and the remaining binding at 1 µM (PRKCD) was 97%. It also gave a remaining binding at 1 µM (PRKD2) of 64%, a remaining binding at 1 µM [2] of 63% and a remaining binding at 1 µM (SRPK1) of 55%. For the same compound, the remaining binding at 1 µM (SRPK3) was 51%, the remaining binding at 1 µM (TAOK3) was 54% and the remaining binding at 1 µM (TBK1) was 98%.
